# Results published in patent US20250206722A1, “SMALL MOLECULE INHIBITORS OF TEA DOMAIN FAMILY MEMBERS” (The Scripps Research Institute, priority 2022, published 2025).
# How the values were obtained:
# [1] = Pharmacokinetic studies in mice; assay type: in vivo, mouse; conditions: for Vd / clearance / half-life: mouse plasma; for Vd / clearance: intravenous 2 mg/kg in 75% PEG 300+25% D5W; for half-life: intravenous 2 mg/kg, oral 10 mg/kg in 75% PEG 300+25% D5W; for bioavailability: plasma, mouse, oral 10 mg/kg vs intravenous 2 mg/kg in 75% PEG 300+25% D5W
# Procedure: Pharmacokinetic Studies in mice: The plasma pharmacokinetic profiles of representative compounds were evaluated in mouse via intravenous (2 mg/kg in 75% PEG 300+25% D5W solution) and oral (10 mg/kg in 75% PEG 300+25% D5W solution) dosing routes.
# NCI-H226 cells [2] = assay: NCI-H226 proliferation assay (in house); assay type: cell-based; conditions: Homo sapiens, 120 h, 5 days, Cell TiterGlo, 20-point 1:2 dilution from 20 μM
# Outline: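 Cells in RPMI 1640 + 10% FBS, 500 per well, dosed after 24 h with 20-point 1:2 dilutions from 20 μM (final), in triplicate. After 5 days at 37 °C, 5% CO2, viability read by CellTiter-Glo luminescence.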
# [3] = tested on: transcriptional activity of TEADs; assay: TEAD reporter assay (MCF7 TEAD-LUC reporter cells); assay type: cell-based; conditions: Homo sapiens, 24 hours, BrightGlo luminescence
# Outline: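 MCF7 TEAD-LUC reporter cells were plated at 5,000/well and after 24 h treated with a 20-point 1:2 series from 20 μM final, in triplicate. Luciferase was read by BrightGlo luminescence after 24 h exposure at 37 °C.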
# NCI-H226 cells [4] = assay: NCI-H226 proliferation assay (Wuxi AppTec); assay type: cell-based; conditions: Homo sapiens, 168 h, 7 days, CellTiter-Glo, top dose 10, 3-fold dilution, 9 doses
# Outline: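 NCI-H226 cells were seeded at 500 cells/well overnight, then treated with compounds in a 9-point, 3-fold dilution from a top dose of 10 μM, with 0.2% DMSO. Plates were incubated 7 days at 37° C, 5% CO2. Viability was read by CellTiter-Glo luminescence, normalized to DMSO (max) and medium-only (min) controls.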
# IMR32 cells = assay: IMR32 cytotoxicity assay; assay type: cell-based; conditions: Homo sapiens, IMR-32, 72 h, 3 days, Cell TiterGlo
# Procedure: IMR32 cells were obtained from American Type Culture Collection (ATCC, CCL-127) and cultured in DMEM (Corning, 10-013-CV) supplemented with 10% fetal bovine serum (Gibco, 10438-026) and 1% penicillin-streptomycin (Gibco, 15070063). Cells were trypsinized, resuspended in growth medium, and diluted to a concentrated of 20,000 cells/mL. 1,000 cells, 50 μL of cell suspension, per well were then plated in a white 384-well plate (Corning) and incubated at 37° C., 5% CO2. After 24 hours incubation, 100 nL of test compounds in DMSO, 20-point 1:2 dilution starting from 20 μM (final concentration) in triplicate, were transferred to each well using an Agilent Bravo instrument outfitted with a pintool head. Cells were incubated at 37° C., 5% CO2 for 3 days followed by the addition of 30 μL of Cell TiterGlo (Promega; diluted 1:6 in water) to each well and luminescence values recorded using an EnVision plate reader. […]
SMILES,Vd [1] [L/kg],clearance [1] [mL/min/kg],half-life [1] [min],bioavailability [1] [%],IC50 (NCI-H226 cells [2]) [µM],IC50 [3] [nM],IC50 (NCI-H226 cells [4]) [µM],IC50 (IMR32 cells) [nM]
"C=CC(=O)N1CCC(c2nccnc2Oc2ccc(C(F)(F)F)nc2)CC1 [Example 79, 1-(4-(3-((6-(trifluoromethyl)pyridin-3-yl)oxy)pyrazin-2-yl)piperidin-1-yl)prop-2-en-1-one]",1.73,47.3,24,109,0.017,2,0.028,
"C=CC(=O)N1CCN(c2nccnc2Nc2ccc(C(F)(F)F)cc2)CC1 [Compound 1, 1-(4-(3-((4-(trifluoromethyl)phenyl)amino)pyrazin-2-yl)piperazin-1-yl)prop-2-en-1-one]",7,42.2,126,94.4,0.0166,1.8,0.0143,> 10000
"C=CC(=O)N1CCC(c2nccnc2Nc2ccc(C(F)(F)F)cc2)CC1 [Example 26, 1-[4-(3-{[4-(trifluoromethyl)phenyl]amino}pyrazin-2-yl)piperidin-1-yl]prop-2-en-1-one]",,,,,0.009,2,0.02,10000
"C=CC(=O)N1CCN(c2nccnc2Nc2ccc(OC(F)(F)F)cc2)CC1 [Example 34, 1-(4-(3-((4-(trifluoromethoxy)phenyl)amino)pyrazin-2-yl)piperazin-1-yl)prop-2-en-1-one]",,,,,0.007,2,0.006,> 10000
"C=CC(=O)N1CCN(c2nc(C)cnc2Nc2ccc(C(F)(F)F)cc2)CC1 [Example 112, 1-(4-(6-methyl-3-((4-(trifluoromethyl)phenyl)amino)pyrazin-2-yl)piperazin-1-yl)prop-2-en-1-one]",,,,,0.011,1.8,0.009,10000
"C=CC(=O)N1CCN(c2nccnc2Nc2ccc(C(F)(F)F)cn2)CC1 [Example 39, 1-(4-(3-((5-(trifluoromethyl)pyridin-2-yl)amino)pyrazin-2-yl)piperazin-1-yl)prop-2-en-1-one]",1.8,39.5,30,90,0.016,5,0.015,> 20000
"C=CC(=O)N1CCN(c2nccnc2Nc2ccc(S(F)(F)(F)(F)F)cc2)CC1 [Example 31, 1-(4-(3-((4-(pentafluoro-16-sulfaneyl)phenyl)amino)pyrazin-2-yl)piperazin-1-yl)prop-2-en-1-one]",,,,,0.0155,2.06,0.018,> 5000
